Experimental findings from ChEMBL document CHEMBL5154810, “Development of Potent Immune Modulators Targeting Stimulator of Interferon Genes Receptor” (J Med Chem, 2022) are described below.

Calls of active or inactive are those of the source. The rule behind the calls is not given here.

A short description of data set [1]: Toxicity in BALB/c syngenic mouse bearing CT26 cells assessed as effect on body weight at 0.015 to 1.5 mg/kg, iv measured every 2 to 3 days for 17 days. In kind it is organism-based. The following applies: in vivo, 408 h, dose 0.015-1.5 mg/kg, time 17 day.
The target of data set [2] is T1, Stimulator of interferon genes protein (Mus musculus) (UniProt Q3TBT3).
T1 sequence (whole entry): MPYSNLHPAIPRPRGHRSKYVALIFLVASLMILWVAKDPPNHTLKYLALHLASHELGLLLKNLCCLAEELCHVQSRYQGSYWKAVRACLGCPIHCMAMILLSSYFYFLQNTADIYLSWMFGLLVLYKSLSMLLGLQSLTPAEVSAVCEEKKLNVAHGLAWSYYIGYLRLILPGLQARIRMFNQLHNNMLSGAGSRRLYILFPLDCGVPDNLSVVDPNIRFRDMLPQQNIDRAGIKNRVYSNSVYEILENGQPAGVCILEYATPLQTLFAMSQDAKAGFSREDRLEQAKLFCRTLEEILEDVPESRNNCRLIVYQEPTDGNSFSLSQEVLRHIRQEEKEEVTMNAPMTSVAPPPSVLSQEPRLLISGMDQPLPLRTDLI
The data set is described as follows: Binding affinity to STING in mouse RAW264.7 assessed as thermal stabilization at 48 to 55 degC at 100 nM incubated for 4 hrs by western blotting based CETSA assay. The format is cell-based. The following applies: filed as activator. For orientation: Immunoblotting shows a protein as a band on a membrane.

In another data set the target is Cytochrome P450 2C9 (Homo sapiens, UniProt P11712). As to the kind of experiment: Inhibition of CYP2C9 in human liver microsomes tolbutamide as cocktail probe substrate preincubated for 5 mins followed by NADPH addition and measured after 30 mins by HPLC-MS/MS analysis. In kind it is ADME, Microsome.
Chain of Cytochrome P450 2C9 (P11712 whole entry): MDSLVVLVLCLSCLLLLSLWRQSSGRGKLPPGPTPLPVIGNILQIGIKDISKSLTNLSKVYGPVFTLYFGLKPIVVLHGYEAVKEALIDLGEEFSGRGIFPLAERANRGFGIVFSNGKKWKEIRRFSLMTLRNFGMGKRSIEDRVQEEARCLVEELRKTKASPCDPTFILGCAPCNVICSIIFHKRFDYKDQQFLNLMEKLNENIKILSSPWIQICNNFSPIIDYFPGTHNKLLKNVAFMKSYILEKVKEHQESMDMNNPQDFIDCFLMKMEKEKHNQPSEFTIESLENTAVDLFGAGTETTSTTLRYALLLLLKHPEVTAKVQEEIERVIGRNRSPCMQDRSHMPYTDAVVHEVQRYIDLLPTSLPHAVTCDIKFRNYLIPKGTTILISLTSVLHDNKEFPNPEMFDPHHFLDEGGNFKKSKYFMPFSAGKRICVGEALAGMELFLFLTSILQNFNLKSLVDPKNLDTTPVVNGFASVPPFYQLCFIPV
The target in a further data set is Cytochrome P450 2D6 (Homo sapiens, UniProt P10635). The data set is described as follows: Inhibition of CYP2D6 in human liver microsomes using dextromethorphan as cocktail probe substrate preincubated for 5 mins followed by NADPH addition and meaured after 30 mins by HPLC-MS/MS analysis. In kind it is ADME, Microsome.
Chain of Cytochrome P450 2D6 (P10635 whole entry): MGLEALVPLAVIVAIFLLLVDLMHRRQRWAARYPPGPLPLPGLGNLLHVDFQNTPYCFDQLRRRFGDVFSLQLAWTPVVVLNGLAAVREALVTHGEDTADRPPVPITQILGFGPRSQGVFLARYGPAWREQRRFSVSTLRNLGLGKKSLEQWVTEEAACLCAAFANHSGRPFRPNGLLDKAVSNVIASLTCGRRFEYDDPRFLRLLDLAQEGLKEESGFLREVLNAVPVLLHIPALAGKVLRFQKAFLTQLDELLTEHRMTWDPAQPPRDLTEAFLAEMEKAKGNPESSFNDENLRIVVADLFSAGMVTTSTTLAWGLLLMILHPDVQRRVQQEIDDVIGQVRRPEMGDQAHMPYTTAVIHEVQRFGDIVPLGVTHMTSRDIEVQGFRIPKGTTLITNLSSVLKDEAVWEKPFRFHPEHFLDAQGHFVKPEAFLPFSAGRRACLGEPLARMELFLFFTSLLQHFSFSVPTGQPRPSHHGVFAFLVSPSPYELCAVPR
A further data set deals with Cytochrome P450 3A4 (Homo sapiens, UniProt P08684). The data set is described as follows: Inhibition of CYP3A4 in human liver microsomes using […] as cocktail probe substrate preincubated for 5 mins followed by NADPH addition and measured after 30 mins by HPLC-MS/MS analysis. The format is ADME, Microsome.
Chain of Cytochrome P450 3A4 (P08684 whole entry): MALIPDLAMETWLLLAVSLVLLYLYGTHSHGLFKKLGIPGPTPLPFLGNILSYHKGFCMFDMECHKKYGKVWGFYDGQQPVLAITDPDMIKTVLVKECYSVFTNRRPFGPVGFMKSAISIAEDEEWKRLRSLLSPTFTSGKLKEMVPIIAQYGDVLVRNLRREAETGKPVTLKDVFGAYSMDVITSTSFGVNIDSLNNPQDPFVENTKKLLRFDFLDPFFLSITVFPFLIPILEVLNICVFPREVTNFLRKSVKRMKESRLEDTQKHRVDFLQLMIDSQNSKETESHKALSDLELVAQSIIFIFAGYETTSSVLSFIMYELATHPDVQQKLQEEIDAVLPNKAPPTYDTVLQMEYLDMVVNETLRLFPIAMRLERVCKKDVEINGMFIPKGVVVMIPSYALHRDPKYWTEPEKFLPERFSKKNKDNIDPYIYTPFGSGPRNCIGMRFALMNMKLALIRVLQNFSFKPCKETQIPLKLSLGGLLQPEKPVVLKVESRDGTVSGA
A short description of data set [3]: Stability in mouse plasma assessed as parent compound remaining at 5 uM measured after 4 hrs by HPLC-MS/MS analysis. The format is ADME, cell-free. The following applies: read-out: Stability.
The nature of data set [4]: Stability in human plasma assessed as parent compound remaining at 5 uM measured after 4 hrs by HPLC-MS/MS analysis. The format is ADME, cell-free. The following applies: read-out: Stability.
For data set [5], the target named is T2, Stimulator of interferon genes protein (Homo sapiens, UniProt Q86WV6). As to the kind of experiment: Activation of STING mediated immune response in human THP-1 cells assessed as induction of IFNbeta secretion measured after 24 hrs by ELISA. The format is cell-based. (In general: ELISA stands for enzyme-linked immunosorbent assay.)
T2 sequence (Q86WV6 whole entry): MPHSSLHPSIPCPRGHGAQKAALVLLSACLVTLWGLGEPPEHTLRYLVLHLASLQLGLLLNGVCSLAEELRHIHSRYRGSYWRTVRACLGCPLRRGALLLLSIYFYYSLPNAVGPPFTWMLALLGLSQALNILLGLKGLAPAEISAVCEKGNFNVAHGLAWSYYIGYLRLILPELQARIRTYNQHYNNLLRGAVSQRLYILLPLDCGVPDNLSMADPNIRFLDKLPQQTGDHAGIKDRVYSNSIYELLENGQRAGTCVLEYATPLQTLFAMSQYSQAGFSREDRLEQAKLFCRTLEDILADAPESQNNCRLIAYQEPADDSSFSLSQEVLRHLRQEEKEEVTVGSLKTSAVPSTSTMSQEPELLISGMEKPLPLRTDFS
The target of data set [6] is T2, Stimulator of interferon genes protein. As to the kind of experiment: Activation of STING dependent immune response in wild type human THP1-Dual cells assessed as induction of IFN-beta secretion at 1.28 to 3.2 nM measured after 24 hrs by ELISA. The following applies: filed as activator, dose 1.28-3.2 nM. In kind it is cell-based.
Data set [7] has the same target. The data set is described as follows: Activation of STING pathway in human THP1-cells assessed as increase in IRF3 phosphorylation at 2 nM incubated 6 hrs by Western blotting analysis. In kind it is cell-based. The following applies: THP-1, filed as activator.
For data set [8] the target is unchanged. As to the kind of experiment: Activation of STING pathway in human THP1-cells assessed as increase in STAT1 phosphorylation at 2 nM incubated for 6 hrs by Western blotting analysis. In kind it is cell-based. The following applies: THP-1, filed as activator.
Data set [9] has as its system THP-1. The data set is described as follows: Upregulation of IFNB in human THP-1 cells at 100 nM measured after 6 hrs by RT-PCR analysis. In kind it is functional, cell-based.
The test system of data set [10] is THP-1. The data set is described as follows: Upregulation of ISG15 in human THP-1 cells at 100 nM measured after 6 to 18 hrs by RT-PCR analysis. In kind it is functional, cell-based. The following applies: time 6-18 hrs.
Data set [11] can be described thus: Solubility of the compound in DMSO at 50 to 100 uM incubated for 72 hrs. In kind it is physicochemical. The following applies: dose 50-100 µM.
The next data set concerns Mus musculus. The data set is described as follows: Upregulation of IFN-beta in BALB/c mouse serum at 1.5 mg/kg, iv measured after 4 hrs by ELISA. The format is functional, organism-based.
Data set [12] concerns CT26. The data set is described as follows: Antitumor activity against CT26 cells injected in BALB/c syngenic mouse model assessed as reduction in tumor growth at 0.015 to 1.5 mg/kg, iv measured every 2 to 3 days for 17 days. The format is functional, organism-based. The following applies: dose 0.015-1.5 mg/kg, time 17.0 day.
For data set [13], the system named is CT26. As to the kind of experiment: Antitumor activity against CT26 cells injected in BALB/c syngenic mouse model assessed as tumor growth inhibition at 1.5 mg/kg, iv measured after 17 days. The format is functional. The following applies: CT26, 408 h, time 17 day, read-out: TGI.
The subject of another data set is RAW264.7. As to the kind of experiment: Activation of NF-kappaB mediated pro-inflammatory effector proteins in mouse RAW264.7 cells at 100 to 500 nM for incubated for 3 hrs by western blot analysis. The following applies: filed as activator, dose 100-500 nM. The format is cell-based.
Data set [14] can be described thus: Clearance in BALB/c mouse at 3 mg/kg, iv by LC-MS/MS analysis. The format is ADME, organism-based. The following applies: in vivo, iv, 3 mg/kg.
Data set [15] is described as follows: AUClast in BALB/c mouse at 3 mg/kg, iv by LC-MS/MS analysis. The following applies: in vivo. Details: time 0 - last, dose 3 mg/kg, route iv. The format is ADME, organism-based.
The nature of data set [16]: AUCinfinity in BALB/c mouse at 3 mg/kg, iv by LC-MS/MS analysis. In kind it is ADME, organism-based. Details: time infinity, dose 3 mg/kg, route iv. The following applies: in vivo.
In data set [17] the test system is CT26. The data set is described as follows: Antitumor immunity activity against mouse CT26 cells xenografted in BALB/c mouse model assessed as tumor growth inhibition at 1.5 mg/kg, iv measured after 8 days. The format is functional, organism-based. The following applies: time 8.0 day.
Data set [18] is described as follows: Toxicity in BALB/c mouse xenografted with mouse CT26 cells assessed as effect on body weight at 1.5 mg/kg, iv measured after 8 days. The format is organism-based. The following applies: in vivo, 192 h, time 8 day.

As to `CCn1nc(C)cc1C(=O)Nc1nc2cc(C(N)=O)cc(OC)c2n1C/C=C/Cn1c(NC(=O)c2cc(C)nn2CC)nc2cc(C(N)=O)cc(OCCCNC(=O)OC(C)(C)C)c21`, the Activity result in data set [1] was “Non-Toxic”; in data set [5] (filed as activator, dose 0.12-2000 nM, DDE = dose-dependent effect), “Dde”; in data set [18], “Non-Toxic”. Further, the result (in data set [2]; in data set [6]; in data set [7]; in [8]; in the data set on THP-1 [9]; in the data set with THP-1 [10]) was Active. In addition, the outcome with Mus musculus, in the data set with CT26 [12], with RAW264.7 and in the data set on CT26 [17] was Active. The IC50 was above 100 µM against Cytochrome P450 2C9, above 100 µM on Cytochrome P450 2D6 and 4.2 µM against Cytochrome P450 3A4. Also, the remaining at 4 h, 5 µM in data set [3] and in data set [4] was above 99% each time. Besides, the EC50 in data set [5] is 0.002 µM. In data set [11], the solubility entry was “Soluble”. Besides, the inhibition in vivo at 1.5 mg/kg in the data set with CT26 [13] was determined as 57%. The same compound displayed a CL in data set [14] of 35.3 mL/min/kg. Moreover, the AUC(0-t) in data set [15] stood at 4200 ng·h/mL. The compound also had an AUC in [16] of 4780 ng·h/mL.

What is called IC50 is the concentration at which inhibition is half-maximal. A word on the EC50: it is the concentration giving half of the maximal effect. Broadly, the AUC(0-t) is the area under the concentration-time curve up to a stated or last time point. A word on the AUC: it is concentration integrated over time.
